The record followed here is patent US9434687B2, “Detection of synthetic cannabinoids” (priority 2011, dated 2016).

Holding throughout (assay type): binding, sheep
Test [1] deals with IgG fraction of antiserum raised to Immunogen I. The conditions noted are these: Antibody to Immunogen I; cross-reactants at 100 ng/ml; 1000 ng/ml; standard JWH-018. Here is the method: (§1) An aqueous solution of each immunogen was formulated with Freund's Complete Adjuvant (FCA) to form an emulsion consisting of 2 mg/ml*immunogen in 50% (v/v) FCA. Three sheep were immunised with this emulsion (1° immunisation), 0.25 ml being intramuscularly injected at each of four sites in the flank of each animal. Subsequent immunizations (boosts) contained 1 mg/ml*immunogen. All boosts were emulsified in 50% (v/v) Freund's Incomplete Adjuvant (FIA) and were administered in the same manner as the 1° immunisation, at monthly intervals. Blood sampling took place 7 to 14 days after each boost. *The general procedure for immunogen administration is outlined above, however, it was necessary to deviate from this protocol in some cases, due to reduced immunogen concentrations (Immunogens II, IV, VII and VIII) and/or amount available (Immunogen VIII). Any deviations from the protocol described are outlined in Table 5 below and highlighted in bold.
(§2) The wells of an enhanced binding 96 well polystyrene microtiter plate were coated with IgG fraction of antiserum raised to Immunogen I or II, diluted in 10 mM Tris, pH8.5 (125 μl/well). The appropriate antibody coating dilution was determined using standard ELISA checkerboard techniques. The plate was incubated overnight at 4° C., washed 4 times over 10 minutes with Tris buffered saline containing Tween 20 (TBST) and tapped dry. Standard solutions (JWH-018 for Immunogens I and II) were applied at 0, 0.625, 1.25, 2.5, 5, 10, 20 and 40 ng/ml and 50 μl of each was added to the appropriate wells. 75 μl of conjugate (appropriate hapten-HRP) diluted in Tris buffer (pH 7.2) containing EDTA, D-mannitol, sucrose, thimerosal and BSA, was added to each of the wells. The appropriate dilution of conjugate was also determined using standard ELISA checkerboard techniques. The plate was incubated at 25° C. for 1 hour. Excess unbound conjugate was removed by washing 6 times over a 10 minute period with TBST. 125 μl of tetramethylbenzidine (TMB) substrate solution was added to each well of the plate that was then incubated for 20 minutes in the dark at room temperature. The reaction was terminated by addition of 125 μl 0.2M H2SO4 to each well. The absorbance was then measured at 450 nm using a microtiter plate reader. The data are inputted to a computer program called ‘KC Junior’. It is a 4 parameter fit curve and allow the calculation of concentrations between the standard runs. This program is used to calculate the IC50s by dividing the 0 ng/ml OD value by 2 and obtaining the concentration value from the curve for this OD.
In a similar manner to that described above, the wells of a 96-well microtiter plate were coated with the IgG fraction of the antiserum raised to Immunogens I or II. Standard solutions (JWH-018 for Immunogen I and II) were applied at 0, 0.625, 1.25, 2.5, 5, 10, 20 and 40 ng/ml and conjugate was employed as detection reagent.
(§3) The data set out in Tables 7-10 are generated using antibodies raised against the indicated Immunogens in a competitive binding assay with the indicated tracers, using the indicated standards
(§4) In order to determine the specificity of the competitive ELISAs, standard solutions of a range of structurally similar synthetic cannabinoids and their metabolites were prepared in TBST.
(§5) Using the calibration curves generated and employing a single level of cross reactants, these were used to determine the cross-reactivity of each immunoassay with these substances. These are the standards used for the IC50 and cross-reactivity data generation: […]

Test [2] relates to IgG fraction of antiserum raised to Immunogen II. In words: Competitive ELISA, antibody RS1833B12 to Immunogen II, tracer ESC4555 (Example 36). The settings on record: Antibody to Immunogen II; cross-reactants at 100 ng/ml; 1000 ng/ml; standard JWH-018. As to the method: as §1
as §2, with “The” for “The wells of an enhanced binding 96 well polystyrene microtiter plate were coated with IgG fraction of antiserum raised to Immunogen I or II, diluted in 10 mM Tris, pH8.5 (125 μl/well). The”, “Standard solutions (JWH-018 for Immunogens I and II) were applied at 0, 0.625, 1.25, 2.5, 5, 10, 20 and 40 ng/ml and 50 μl of each was added to the appropriate wells.” left out, “runs.” for “runs. This program is used to calculate the IC50s by dividing the 0 ng/ml OD value by 2 and obtaining the concentration value from the curve for this OD.”
In a similar manner to that described above, the wells of a 96-well microtiter plate were coated with the IgG fraction of the antiserum raised to Immunogens I or II.
as §3, §5

For test [3], the system named is IgG fraction of antiserum raised to Immunogen IV. The settings on record: Antibody to Immunogen IV; cross-reactants at 100 ng/ml; 1000 ng/ml; standard JWH-018. Here is the method: as §1, §2
(§6) In a similar manner to that described above, the wells of a 96-well microtiter plate were coated with the IgG fraction of the antiserum raised to Immunogens IV, VII or VIII. Standard solutions (JWH-018 for Immunogens IV and VIII, JWH-015 for Immunogen VII) were prepared in TBST at 0, 1.25, 2.5, 5, 10, 20, 40 and 80 ng/ml and conjugate was employed as detection reagent.
as §3, §4, §5

Test [4] deals with IgG fraction of antiserum raised to Immunogen VIII. The settings on record: Antibody to Immunogen VIII; cross-reactants at 100 ng/ml; 1000 ng/ml; standard JWH-018. Here is the method:
as §1, §2, §6, §3, §4, §5

The test system of test [5] is IgG fraction of antiserum raised to Immunogen VII. The conditions noted are these: Antibody to Immunogen VII; cross-reactants at 100 ng/ml; 1000 ng/ml; standard JWH-015. As to the method: as §1, §2, §6, §3, §4, §5

Turning to `CN1CCCCC1Cn1cc(C(=O)c2ccccc2I)c2ccccc21` (stereo not shown) [AM-2233], the “% B/B0” value in test [1] is given as 16.97%; in test [2], 86.43%; in test [3] it was 92.10%; in test [4] it was 91.25%; in test [5], 72.46%.

For the compound `CC(C)(C)Cn1cc(C(=O)c2cccc3ccccc23)c2ccccc21` [JWH-018 N-(2,2-dimethylpropyl) isomer], the “% B/B0” value in test [1] stood at 3.89%; in test [2], 60.15%; in test [3] it was 80.42%; in test [4] it was 95.09%; in test [5], 52.46%.

As for `CCC(C)Cn1cc(C(=O)c2cccc3ccccc23)c2ccccc21` (single isomer, unassigned) [JWH-018 N-(2-methylbutyl) isomer], the “% B/B0” value was found to be 3.61% in test [1]; 28.60% in test [2]; 29.88% in test [3]; 85.16% in test [4]; 58.84% in test [5].

For `CCCCCn1cc(C(=O)c2cccc3c(Cl)cccc23)c2ccccc21` [JWH-398 5-chloronaphthyl isomer], the “% B/B0” value was 35.53% in test [1]; 23.50% in test [2]; 7.06% in test [3]; 19.67% in test [4]; 91.33% in test [5].

As for `CCCCn1cc(C(=O)c2cccc3ccccc23)c2c(O)cccc21` [4-OH JWH-073, JWH-073 4-hydroxyindole metabolite], the “% B/B0” value in test [1] was 39.50%; in test [2], 40.14%; in test [3] it was 28.69%; in test [4], 26.23%; in test [5] it was 82.82%.

Take `C=CCCCn1cc(C(=O)c2cccc3ccccc23)c2ccccc21` [JWH-022]: the “% B/B0” value in test [1] is listed as 4.51%; in test [2], 11.72%; in test [3], 10.61%; in test [4] it was 28.94%; in test [5] it was 58.44%.

As for `O=C(c1cccc2ccccc12)c1cn(CCCC(O)CF)c2ccccc12` (stereo not shown) [AM-2201 N-(4-hydroxypentyl) metabolite], the “% B/B0” value in test [1] was 3.80%; in test [2], 46.55%; in test [3] it was 43.62%; in test [4] it was 36.41%; in test [5], 52.75%.

As for `O=C(O)CCCn1cc(C(=O)c2cccc3ccccc23)c2ccccc21` [JWH-073 N-butanoic acid metabolite], the “% B/B0” value in test [1] is 6.88%; in test [2], 92.20%; in test [3], 98.95%; in test [4] it was 94.98%; in test [5], 60.01%.

Turning to `CCCCn1cc(C(=O)c2cccc3ccccc23)c2cccc(O)c21` [7-OH JWH-073, JWH-073 7-hydroxyindole metabolite], the “% B/B0” value is listed as 5.59% in test [1]; 46.05% in test [2]; 96.95% in test [3]; 94.04% in test [4]; 61.78% in test [5].

Turning to `CCCCn1cc(C(=O)c2c(C)ccc3ccccc23)c2ccccc21` [JWH 073 2-methylnaphthyl analog], the “% B/B0” value was found to be 21.84% in test [1]; 43.34% in test [2]; 34.47% in test [3]; 78.79% in test [4]; 76.74% in test [5].

Consider `CCCC(C)n1cc(C(=O)c2cccc3ccccc23)c2ccccc21` (single isomer, unassigned) [JWH-018 N-(1-methylbutyl) isomer], for which the “% B/B0” value amounted to 12.42% in test [1]; 51.92% in test [2]; 73.49% in test [3]; 63.22% in test [4]; 67.71% in test [5].

Consider `CCCCCn1cc(C(=O)c2cccc3ccccc23)c2cccc(O)c21` [7-OH JWH-018, JWH-018 7-hydroxyindole metabolite], for which the “% B/B0” value in test [1] is 6.72%; in test [2], 34.79%; in test [3] it was 93.31%; in test [4], 94.46%; in test [5], 68.53%.

`CCCCCn1c(C)c(C(=O)c2cccc3ccccc23)c2ccccc21` [JWH-007]: the “% B/B0” value in test [1] was 32.96%; in test [2], 66.06%; in test [3], 60.63%; in test [4], 61.76%; in test [5], 27.77%.

In the case of `CS(=O)(=O)O.Cc1c(C(=O)c2cccc3ccccc23)c2cccc3c2n1[C@H](CN1CCOCC1)CO3` [(+)WIN 55212-2], the “% B/B0” value in test [1] was 17.00%; in test [2], 83.87%; in test [3], 92.76%; in test [4], 107.12%; in test [5], 24.08%.

In the case of `CCCCCn1cc(C(=O)c2cccc3ccccc23)c2ccc(OC)cc21` [JWH-018 6-methoxyindole analogue], the “% B/B0” value in test [1] is 10.55%; in test [2], 20.44%; in test [3], 90.65%; in test [4], 77.22%; in test [5], 72.33%.

With `COc1ccc(C(=O)c2cn(CCCCCO)c3ccccc23)cc1` [RCS-4 N-(5-hydroxypentyl) metabolite], the “% B/B0” value in test [1] is reported as 59.51%; in test [3], 61.03%; in test [4], 19.13%; in test [5] it was 94.55%.

Turning to `CS(=O)(=O)O.Cc1c(C(=O)c2cccc3ccccc23)c2cccc3c2n1[C@@H](CN1CCOCC1)CO3` [Win 55,212-3 mesylate], the “% B/B0” value was determined as 34.00% in test [1], 94.57% in test [3], 101.30% in test [4] and 32.31% in test [5].

Take `CCCCCn1cc(C(=O)Cc2ccccc2OC)c2ccccc21` [JWH-250]: the “% B/B0” value in test [1] stood at 78.94%; in test [3], 41.08%; in test [4] it was 9.40%; in test [5] it was 97.23%.

`CCCCCCC(C)(C)C1=CC(=O)C(C2CCCC(O)C2)=CC1=O` (stereo not shown) [CP-47,497-para-quinone analogue]: the “% B/B0” value in test [1] is 100.26%; in test [3], 97.33%; in test [4], 88.11%; in test [5], 93.29%.
